The supplement of paper PMC10307832

Key:
Test in all cases: relative viability (nuclei count vs DMSO), 5 days (fraction); higher = more cells survive
BEN = test system: BEN
Procedure, shortened: (§1)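 Five library-drug doses in √10 steps were combined with a fixed anchor-drug dose, or a single drug was given alone, by pin tool to lung cancer cell lines in 1536-well plates the day after seeding. Nuclei were stained and counted after 5 days. Relative viability is the nuclei count in treated wells over that in vehicle wells, taken as the median of duplicate plates.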

ChaGo-K-1 = test system: ChaGo-K-1
Procedure, shortened: as §1

HCC-78 = test system: HCC-78
Procedure, shortened: as §1

LC-2-ad = test system: LC-2-ad
Procedure, shortened: as §1

LCLC-97TM1 = test system: LCLC-97TM1
Procedure, shortened: as §1

LK-2 = test system: LK-2
Procedure, shortened: as §1

LU99A = test system: LU99A
Procedure, shortened: as §1

LXF-289 = test system: LXF-289
Procedure, shortened: as §1

NCI-H1355 = test system: NCI-H1355
Procedure, shortened: as §1

NCI-H1651 = test system: NCI-H1651
Procedure, shortened: as §1

NCI-H1666 = test system: NCI-H1666
Procedure, shortened: as §1

NCI-H1944 = test system: NCI-H1944
Procedure, shortened: as §1

NCI-H1975 = test system: NCI-H1975
Procedure, shortened: as §1

NCI-H2087 = test system: NCI-H2087
Procedure, shortened: as §1

NCI-H2342 = test system: NCI-H2342
Procedure, shortened: as §1

NCI-H358 = test system: NCI-H358
Procedure, shortened: as §1

NCI-H596 = test system: NCI-H596
Procedure, shortened: as §1

NCI-H650 = test system: NCI-H650
Procedure, shortened: as §1

NCI-H661 = test system: NCI-H661
Procedure, shortened: as §1

NCI-H838 = test system: NCI-H838
Procedure, shortened: as §1

PC-3 [JPC-3] = test system: PC-3 [JPC-3]
Procedure, shortened: as §1

SK-MES-1 = test system: SK-MES-1
Procedure, shortened: as §1

Cc1sc2c(c1C)C(c1ccc(Cl)cc1)=N[C@@H](CC(=O)OC(C)(C)C)c1nnc(C)n1-2 [JQ1] + CC(=O)Nc1cccc(-n2c(=O)n(C3CC3)c(=O)c3c(Nc4ccc(I)cc4F)n(C)c(=O)c(C)c32)c1 [Trametinib] (partner 0.02 µM)
relative viability (BEN; first compound 0.04 µM): 1.05 | relative viability (BEN; first compound 0.1265 µM): 0.829 | relative viability (BEN; first compound 0.4 µM): 0.557 | relative viability (BEN; first compound 1.265 µM): 0.481 | relative viability (BEN; first compound 4 µM): 0.41 | relative viability (ChaGo-K-1; first compound 0.04 µM): 0.943 | relative viability (ChaGo-K-1; first compound 0.1265 µM): 0.928 | relative viability (ChaGo-K-1; first compound 0.4 µM): 0.797 | relative viability (ChaGo-K-1; first compound 1.265 µM): 0.641 | relative viability (ChaGo-K-1; first compound 4 µM): 0.483 | relative viability (HCC-78; first compound 0.04 µM): 0.791 | relative viability (HCC-78; first compound 0.1265 µM): 0.603 | relative viability (HCC-78; first compound 0.4 µM): 0.572 | relative viability (HCC-78; first compound 1.265 µM): 0.462 | relative viability (HCC-78; first compound 4 µM): 0.367 | relative viability (LC-2-ad; first compound 0.04 µM): 0.866 | relative viability (LC-2-ad; first compound 0.1265 µM): 0.918 | relative viability (LC-2-ad; first compound 0.4 µM): 0.708 | relative viability (LC-2-ad; first compound 1.265 µM): 0.479 | relative viability (LC-2-ad; first compound 4 µM): 0.303 | relative viability (LCLC-97TM1; first compound 0.04 µM): 0.187 | relative viability (LCLC-97TM1; first compound 0.1265 µM): 0.149 | relative viability (LCLC-97TM1; first compound 0.4 µM): 0.189 | relative viability (LCLC-97TM1; first compound 1.265 µM): 0.102 | relative viability (LCLC-97TM1; first compound 4 µM): 0.102 | relative viability (LK-2; first compound 0.04 µM): 0.71 | relative viability (LK-2; first compound 0.1265 µM): 0.579 | relative viability (LK-2; first compound 0.4 µM): 0.217 | relative viability (LK-2; first compound 1.265 µM): 0.163 | relative viability (LK-2; first compound 4 µM): 0.218 | relative viability (LU99A; first compound 0.04 µM): 0.544 | relative viability (LU99A; first compound 0.4 µM): 0.335 | relative viability (LU99A; first compound 1.265 µM): 0.209 | relative viability (LU99A; first compound 4 µM): 0.194 | relative viability (LXF-289; first compound 0.04 µM): 0.641 | relative viability (LXF-289; first compound 0.1265 µM): 0.698 | relative viability (LXF-289; first compound 0.4 µM): 0.676 | relative viability (LXF-289; first compound 1.265 µM): 0.607 | relative viability (LXF-289; first compound 4 µM): 0.477 | relative viability (NCI-H1355; first compound 0.04 µM): 0.432 | relative viability (NCI-H1355; first compound 0.1265 µM): 0.429 | relative viability (NCI-H1355; first compound 0.4 µM): 0.34 | relative viability (NCI-H1355; first compound 1.265 µM): 0.277 | relative viability (NCI-H1355; first compound 4 µM): 0.255 | relative viability (NCI-H1651; first compound 0.04 µM): 0.782 | relative viability (NCI-H1651; first compound 0.1265 µM): 0.742 | relative viability (NCI-H1651; first compound 0.4 µM): 0.603 | relative viability (NCI-H1651; first compound 1.265 µM): 0.496 | relative viability (NCI-H1651; first compound 4 µM): 0.437 | relative viability (NCI-H1666; first compound 0.04 µM): 0.92 | relative viability (NCI-H1666; first compound 0.1265 µM): 0.874 | relative viability (NCI-H1666; first compound 0.4 µM): 0.847 | relative viability (NCI-H1666; first compound 1.265 µM): 0.641 | relative viability (NCI-H1666; first compound 4 µM): 0.757 | relative viability (NCI-H1944; first compound 0.04 µM): 0.409 | relative viability (NCI-H1944; first compound 0.1265 µM): 0.394 | relative viability (NCI-H1944; first compound 0.4 µM): 0.305 | relative viability (NCI-H1944; first compound 1.265 µM): 0.288 | relative viability (NCI-H1944; first compound 4 µM): 0.278 | relative viability (NCI-H1975; first compound 0.04 µM): 0.342 | relative viability (NCI-H1975; first compound 0.1265 µM): 0.27 | relative viability (NCI-H1975; first compound 0.4 µM): 0.244 | relative viability (NCI-H1975; first compound 1.265 µM): 0.217 | relative viability (NCI-H1975; first compound 4 µM): 0.198 | relative viability (NCI-H2087; first compound 0.04 µM): 0.192 | relative viability (NCI-H2087; first compound 0.1265 µM): 0.179 | relative viability (NCI-H2087; first compound 0.4 µM): 0.18 | relative viability (NCI-H2087; first compound 1.265 µM): 0.142 | relative viability (NCI-H2087; first compound 4 µM): 0.167 | relative viability (NCI-H2342; first compound 0.04 µM): 0.782 | relative viability (NCI-H2342; first compound 0.1265 µM): 0.8 | relative viability (NCI-H2342; first compound 0.4 µM): 0.905 | relative viability (NCI-H2342; first compound 1.265 µM): 0.803 | relative viability (NCI-H2342; first compound 4 µM): 0.672 | relative viability (NCI-H358; first compound 0.04 µM): 0.148 | relative viability (NCI-H358; first compound 0.1265 µM): 0.143 | relative viability (NCI-H358; first compound 0.4 µM): 0.122 | relative viability (NCI-H358; first compound 1.265 µM): 0.133 | relative viability (NCI-H358; first compound 4 µM): 0.127 | relative viability (NCI-H596; first compound 0.04 µM): 0.776 | relative viability (NCI-H596; first compound 0.1265 µM): 0.683 | relative viability (NCI-H596; first compound 0.4 µM): 0.442 | relative viability (NCI-H596; first compound 1.265 µM): 0.338 | relative viability (NCI-H596; first compound 4 µM): 0.31 | relative viability (NCI-H650; first compound 0.04 µM): 0.852 | relative viability (NCI-H650; first compound 0.1265 µM): 0.812 | relative viability (NCI-H650; first compound 0.4 µM): 0.779 | relative viability (NCI-H650; first compound 1.265 µM): 0.371 | relative viability (NCI-H650; first compound 4 µM): 0.275 | relative viability (NCI-H661; first compound 0.04 µM): 0.554 | relative viability (NCI-H661; first compound 0.1265 µM): 0.451 | relative viability (NCI-H661; first compound 0.4 µM): 0.508 | relative viability (NCI-H661; first compound 1.265 µM): 0.46 | relative viability (NCI-H661; first compound 4 µM): 0.441 | relative viability (NCI-H838; first compound 0.04 µM): 0.521 | relative viability (NCI-H838; first compound 0.1265 µM): 0.267 | relative viability (NCI-H838; first compound 0.4 µM): 0.375 | relative viability (NCI-H838; first compound 1.265 µM): 0.293 | relative viability (NCI-H838; first compound 4 µM): 0.202 | relative viability (PC-3 [JPC-3]; first compound 0.04 µM): 0.683 | relative viability (PC-3 [JPC-3]; first compound 0.1265 µM): 0.609 | relative viability (PC-3 [JPC-3]; first compound 0.4 µM): 0.49 | relative viability (PC-3 [JPC-3]; first compound 1.265 µM): 0.475 | relative viability (PC-3 [JPC-3]; first compound 4 µM): 0.461 | relative viability (SK-MES-1; first compound 0.04 µM): 0.446 | relative viability (SK-MES-1; first compound 0.1265 µM): 0.309 | relative viability (SK-MES-1; first compound 0.4 µM): 0.32 | relative viability (SK-MES-1; first compound 1.265 µM): 0.24 | relative viability (SK-MES-1; first compound 4 µM): 0.259
